“Also recorded” adds a separate entry of the source.

The conditions of series [1]: estimated; cited from earlier work.
In series [2] the test system is mouse cortical neurons. In words: In vitro model of stroke: LDH released to the media (PIERCE LDH cytotoxicity assay). Type of series: cell-based. The conditions noted are these: for concentration of LDH in the media 24 hours after the ischemic insult: 45 minutes ischemic insult, vs ischemic non-treated neurons, p<0.05. As to the method:
(§1) In order to mimic neuronal ischemia in vitro, primary cortical neurons were culture in vitro for 6 days. After this time either a total ischemia or a partial ischemia were performed.
(§2) Total ischemia: on the day of ischemia medium was changed to PBS (pH=6.5) that had been previously bubbled with N2 to remove all O2. In the case of total ischemia, in order to ensure total lack of oxygen in the PBS, dithionite was added to the PBS to capture the remaining diluted O2. This process ensured the absence of both nutrients and O2 as it would be expected at the core of a stroke.
(§3) Penumbra: to mimic penumbra, normal medium was changed to a mixture of medium without antioxidants and PBS (50:50) and bubbled with N2 to remove diluted O2.
(§4) In both protocols neurons were then placed inside a gas chamber filled with N2 and left there for 45 minutes (ischemia) or 1 hour (penumbra). In order to mimic reperfusion, PBS or medium/PBS were then substituted with medium without antioxidants and left in the incubator overnight.
(§5) Normoxia: to mimic normoxia, normal medium was changed with normal medium without antioxidants and placed in the incubator under normal conditions for 45 minutes or 1 hour. Then medium was exchanged again with normal medium and left overnight in the incubator.
Additionally, the amount of LDH released to the media was determined. LDH is released to the media during necrosis (immediate cell death after an insult, 0-6 hours after insult) and in the late stages of apoptosis in vitro (6 to 24 hours after insult) through the disruption of the plasmatic membrane. For this we used the PIERCE LDH CYTOTOXICITY ASSAY from Life Technologies.

The test system of another series is Rabbits. In words: Model of intestinal ischemia (mesenteric ligation). Type of series: in vivo, rabbit. The conditions noted are these: injected intraarterially upon removal of the ligation or systemically before ligation.
Series [3] relates to mouse cortical neurons. Put plainly: In vitro model of stroke: number of cortical neurons alive / survival rate 24 hours after ischemia. Type of series: cell-based. The conditions noted are these: for survival rate of mouse cortical neurons 24 hours after ischemic insult: 45 minutes ischemic insult, P<0.05; for number of cortical neurons alive / survival rate 24 hours after ischemia: penumbra like conditions, 60 minutes ischemic insult, P<0.001. As to the method:
as §1, §2, §3, §4, §5
(§6) In all conditions neurons were fixed and stained with DRAQS (a nuclear marker) and NeuN (a neuronal marker) on the next day. Images were taking with an OPERA microscope and analysed with the help of FIJI Image analysis software. The more reliable outcome parameter to detect apoptosis was the surface of the nuclei in μm2 and the number of neurons alive after 24 hours. As it can be observed in FIGS. 1 and 2, the frequency distribution of nuclear sizes dramatically changed between normoxia and ischemia without treatment.

The next series deals with cardiomyocytes. In words: Ischaemia-reperfusion in isolated cardiomyocytes. Type of series: cell-based, mouse. The conditions noted are these: simulated ischaemia-reperfusion.
The next series deals with primary cortical neurons. Put plainly: In vitro model of stroke: nuclear size (apoptotic nuclei) of cortical neurons 24 hours after ischemia. The conditions noted are these: for number of apoptotic neurons (nuclear size <30 μm2): vs non-treated neurons during ischemia. Type of series: cell-based, mouse. On the procedure: as §1, §2, §3, §4, §5, §6
The subject of series [4] is Mice. In words: In vivo model of limb ischemia (unilateral femoral ligatures). Details: species or system mouse. The conditions noted are these: injected systemically when ligatures are removed or before ligation. On the procedure:
In vivo model of limb ischemia: Mice are submitted to unilateral femoral ligatures for a few hours (4-5) to a few days. Glycolic acid or vehicle are injected systemically when the ligatures are removed. Alternatively, glycolic acid is given before ligation systemically. Ischemia is confirmed by clinical scores (tissue and functional damages by gait analysis) and methoxyisobutylisonitrile (MIBI) scintigraphies at different days 0, 4, 6, 10, 20, and 30. Histological analysis is also performed to determine the extension of the ischemia.

Series [5] concerns Mice. Put plainly: Transient filament MCA occlusion model (fMCAo) with infarct volumetry. It is filed as in vivo, mouse. The source says: Transient filament MCA occlusion model (fMCAo): Mice are anaesthetized with isoflurane delivered in a mixture of 30% O2 and 70% N2O. An incision is made between the ear and the eye in order to expose the temporal bone. A laser Doppler probe is affixed to the skull above the MCA territory, and mice are placed in the supine position. An incision is made in the midline neck region, and the common carotid artery and left external carotid artery are isolated and ligated; a 2-mm silicon-coated filament (Doccol, #701912PKRe) is inserted into the internal carotid artery, and MCA occlusion is confirmed by a corresponding decrease in blood flow (i.e., a decrease in the laser Doppler flow signal). After 60 minutes of occlusion the filament is removed and either the vehicle, or 5, 10, 20 or 40 mM of GA (concentration for the total expected infact area) is injected. […]
Infarct volumetry: Brains are removed 24 and 72 hours after stroke induction and frozen on powdered dry ice. […] Infarct area is measured in each section using ImageJ software (NIH). In the fMCAo model, an edema correction for infarct volume is calculated using the following formula: (Ischemic area)=(Direct lesion volume)−[(Ipsilateral hemisphere)−(Contralateral hemisphere)] was performed. The total infarct volume is calculated by integrating the measured areas and intervals between the sections.

The subject of a further series is mouse hearts. In words: Ischaemia-reperfusion in perfused hearts (Langendorff). The conditions noted are these: 60 min global ischaemia, 60 min reperfusion with 5, 10, 20 or 40 mM glycolic acid. As to the method: Ischaemia-reperfusion in perfused hearts: Ischemia reperfusion in perfused hearts is performed. After sodium pentobarbital overdose (150 mg/kg i. p.), mouse hearts are quickly excised and perfused through the aorta in a Langendorff apparatus with a modified Krebs-Henseleit bicarbonate buffer (in mmol/l: 140 NaCl, 24 NaHCO3, 2.7 KCl, 0.4 KH2PO4, 1 MgSO4, 1.8 CaCl2 and 11 glucose, 95% O2-5% CO2 at 37° C.) at constant flow perfusion pressure of 80 mmHg. Left ventricular (LV) pressure is monitored with a water-filled latex balloon inserted into the LV and inflated to obtain an end-diastolic pressure (LVEDP) of 6-8 mmHg. LV developed pressure (LVdevP) is calculated as the difference between LV systolic pressure and LVEDP. After 30 minutes (min) of normoxic perfusion, mouse hearts are subjected to 60 min of normothermic global ischaemia followed by 60 min of reperfusion with vehicle or 5, 10, 20 or 40 mM glycolic acid. Lactate dehydrogenase (LDH) activity is spectrophotometrically measured in samples collected from the coronary effluent at different times throughout the perfusion period and was considered an indirect measure of necrosis. After 60 min of reperfusion, heart slices were incubated in […] to outline the area of necrosis. Hearts submitted to normoxic perfusion during 120 min served as time control series. […]

Description for Rabbits: Rabbits are anesthetized with 3% barbital, 30-35 mg/intravenous injections. The small intestine is reflected to the left of the abdominal incision and then the SMA and SMV are identified. Mesenteric ischemia is confirmed when the mesenteric pulsation is lost and the intestine becomes pale. Ligation is maintained for 2, 4 and 6 hours. […] After removing the ligation, the animal is led free for 1 and 3 days and then is intracardially perfused. Intestinal samples are embedded in paraffin and sections are stained with a nuclear staining. Nuclear size distribution is analysed in different ischemic areas and compared to that of non-ischemic areas.
Description for cardiomyocytes: Ischaemia-reperfusion in isolated cardiomyocytes: Freshly isolated cardiomyocytes are obtained from mouse hearts by retrograde collagenase perfusion. Rhod-shaped calcium tolerant cardiomyocytes are selected by differential centrifugation and albumin gradient and are plated on laminin-coated glass bottom coverslips (for confocal studies) or on 4% fetal calf serum pretreated multiwell dishes. To simulate IR in cardiomyocytes, two independent approaches are used: anoxic workstation under controlled atmosphere of 0% 02-5% H2 at 37° C. (Invivo2 Workstation Ruskinn, Bridgend, UK) and microscope-adapted microperfusion chamber (RC-43C/BS4 64-0371 Harvard Apparatus, Holliston, Mass., USA). For the anoxic workstation, cardiomyocytes are plated in 96-wells dishes, placed within the anoxic atmosphere and incubated for 15 min with glucose-free acidic ischaemic buffer (previously deoxygenated in an autoclave and bubbled with N2 for 20 min) containing (in mmol/l): 140 NaCl, 3.6 KCl, 1.2 MgSO4, 1 CaCl2, 20 HEPES, pH 6.4, and supplemented with 4 μmol/l resazurin, 100 μmol/l ascorbic acid, 0.5 mmol/l dithionite and 100 U/ml superoxide dismutase. For reperfusion, ischaemic buffer is washed out and oxygenated, glucose-containing control buffer (pH 7.4) is added for 10 min. […]

As for `OCCOCCO` [diethylene glycol], the minimum toxic dose in series [1] is given as 0.14 mg glycolic acid per kg of body weight.
With `O=C(O)CO` [glycolic acid, 2-hydroxyethanoic acid], the “concentration of LDH in the media 24 hours after the ischemic insult” value in the series on mouse cortical neurons [2] (2.5 mM during reperfusion) and in the series on mouse cortical neurons [2] (5 mM during reperfusion) was “decrease the concentration of LDH significantly; also recorded: reduces apoptosis” in each case. Also, in the series on mouse cortical neurons [2] (concentrations lower than 5 mM given during reperfusion), the “concentration of LDH in the media” value is given as “decreased the concentration of LDH in the media”. The “effect on LDH levels in normoxia” value in the series on mouse cortical neurons [2] (normoxic conditions, 2.5 and 5 mM) is “did not observe any difference between treatments; also recorded: cannot be observed”. Besides, the “number of apoptotic nuclei and ischemic areas” value in the series with Rabbits was “reduce the number of apoptotic nuclei and the ischemic areas”. Further, the “survival rate of mouse cortical neurons 24 hours after ischemic insult” value with mouse cortical neurons [3] (2.5 mM during reperfusion) is “increases the survival rate”; in the series on mouse cortical neurons [3] (5 mM during reperfusion), “increases the survival rate”; in the series with mouse cortical neurons [3] (5 mM during reperfusion, listed as GA), “enough to rescue the effect of the ischemia”. The “number of cortical neurons alive / survival rate 24 hours after ischemia” value with mouse cortical neurons [3] (10 mM during reperfusion) is on record as “increased cortical neurons survival; also recorded: increases the survival rate”; in the series with mouse cortical neurons [3] (20 mM during reperfusion), “increases the survival rate”. Besides, the “survival of mouse cortical neurons” value with mouse cortical neurons [3] (concentrations lower than 5 mM given during reperfusion (data not shown)) is given as “did not increase survival”. Further, the “neuronal cell death / protection against ischemia, 24 hours after ischemia” value in the series on mouse cortical neurons [3] (mouse cortical neurons, vs non-treated neurons undergoing ischemia, applied before ischemia or during reperfusion) is reported as “protects neurons from ischemia; also recorded: significantly decreases neuronal cell death; also recorded: protects against different degrees of ischemia both when applied before or after the acute ischemic insult”. The “protection of neurons in normoxia conditions” value with mouse cortical neurons [3] (pretreatment with 2.5 mM) and with mouse cortical neurons [3] (pretreatment with 5 mM) was “protects neurons against the adverse conditions inherent to an in vitro setting” each time. In the series on cardiomyocytes, the “number of cardiomyocytes alive 24 hours after ischemia” value is on record as “increased number of cardiomyocytes alive”. Moreover, the “more normal size nuclei (nuclear surface >30 μm2) 24 hours after ischemia” value in the series with primary cortical neurons (5 mM pretreatment or 10 and 20 mM during reperfusion, vs control neurons that underwent ischemia without treatment) is listed as “up to 65%”. Besides, the “number of apoptotic neurons (nuclear size <30 μm2)” value in the series with primary cortical neurons (10 mM during reperfusion, p<0.01) is given as “reduces the number of apoptotic neurons”; in the series on primary cortical neurons (20 mM during reperfusion, p<0.01), “reduces the number of apoptotic neurons”; in the series on primary cortical neurons (pre-treatment with 5 mM, p<0.05) it was “reduces the number of apoptotic neurons”. Besides, the “shift of the nuclear size to smaller apoptotic nuclei induced by ischemia” value in the series with primary cortical neurons (10 mM glycolic acid during reperfusion), with primary cortical neurons (20 mM glycolic acid during reperfusion), in the series with primary cortical neurons (4 days pretreatment with 5 mM glycolic acid) and in the series with primary cortical neurons (pretreatment with 2.5 mM glycolic acid) was “partially reversed” each time. The “protective effect (rescue)” value with primary cortical neurons (penumbra conditions) came to 100%. Moreover, in the series with Mice [4], the “extension of the ischemia and cell death” value was “reduce the extension of the ischemia and cell death”. Besides, the “decrease in blood flow” value in the series with Mice [5] (5, 10, 20 or 40 mM GA injected after 60 minutes of occlusion) was “less severe decrease in blood flow”. Moreover, the infarct volume result in the series with Mice [5] (brains removed 24 and 72 hours after stroke induction) is reported as “reduce the infarct volume size”. Besides, the “necrosis (LDH activity, area of necrosis)” value with mouse hearts is “reduced necrosis compared to controls”.

These data come from patent US11426372B2, “Glycolic acid protects against ischemic insults” (priority 2015, dated 2022).
